Data published in patent US11433052B2, “5-LOX and COX-2 inhibition for treatment in connection with blood-brain barrier dysfunction” (University of Kentucky Research Foundation, priority 2019, dated 2022).

What was measured:
MMP-2 = test: Western blot of MMP-2 protein expression in capillaries exposed to glutamate; assay type: cell-based; settings: isolated rat brain capillaries, 100 μM glutamate with 100 μM LCF
Method: (§1) With reference to FIGS. 1A-1C, the effect of dual LOX-COX inhibition on glutamate-mediated capillary leakage was tested. Isolated rat brain capillaries were exposed to 100 μM glutamate with or without 100 μM of the dual LOX/COX inhibitor, licofelone (LCF). […] FIG. 1A includes Western blots showing MMP-2 and MMP-9 protein expression in isolated rat brain capillaries exposed to 100 μM glutamate with or without LCF. β-Actin was used as protein loading control.

[1] = test system: isolated rat brain capillaries; test: Texas Red leakage assay, glutamate-mediated capillary leakage; assay type: cell-based; settings: 100 μM glutamate with 100 μM LCF
Method: With reference to FIGS. 1A-1C, the effect of dual LOX-COX inhibition on glutamate-mediated capillary leakage was tested. Isolated rat brain capillaries were exposed to 100 μM glutamate with or without 100 μM of the dual LOX/COX inhibitor, licofelone (LCF).

[2] = test system: brain capillaries from pilocarpine-induced status epilepticus (SE) rats; test: Texas Red leakage from capillary lumens, seizure-mediated capillary leakage in SE rats; assay type: in vivo, rat; settings: 10 mg/kg LCF i.p., 7 injections; capillaries isolated 2 d after SE-induction with pilocarpine
Method: With reference to FIGS. 2A and 2B, the effect of dual LOX-COX inhibition on seizure-mediated capillary leakage was tested. Rats were treated with 10 mg/kg LCF (i.p., 7 injections). Capillaries were isolated 2 d after status epilepticus (SE)-induction with pilocarpine. Texas Red (TR) leakage from capillary lumens was monitored by confocal microscopy. Mannitol served as a positive control for barrier opening. (Hartz et al., 2012). Data includes mean±SEM (n=10 capillaries); arbitrary units (0-255). B) S100β ELISA (Millipore). Statistics: ***p<0.001 (ANOVA). […] With reference to FIGS. 4A and 4B, the effect of a combination of a LOX inhibitor and a COX inhibitor on seizure-mediated capillary leakage was tested. Rats were treated with zileuton (ZLT) and celecoxib (CEL) (5 mg/kg and 10 mg/kg; i.p., 7 injections). Capillaries were isolated 2 d after SE-induction with pilocarpine. Texas Red (TR) leakage from capillary lumens monitored by confocal microscopy (mannitol: positive control for barrier opening; Hartz et al., 2012). Data: mean±SEM (n=10 capillaries); arbitrary units (0-255).

MMP-9 = test: Western blot of MMP-9 protein expression in capillaries exposed to glutamate; assay type: cell-based; settings: isolated rat brain capillaries, 100 μM glutamate with 100 μM LCF
Method: as §1

MMP = MMP activity in isolated capillaries exposed to glutamate; assay type: cell-based, rat; settings: 100 μM glutamate with 100 μM LCF
Method: With reference to FIGS. 1A-1C, the effect of dual LOX-COX inhibition on glutamate-mediated capillary leakage was tested. Isolated rat brain capillaries were exposed to 100 μM glutamate with or without 100 μM of the dual LOX/COX inhibitor, licofelone (LCF). […] FIG. 1B is a bar graph illustrating MMP activity assessed in isolated capillaries exposed to 100 μM glutamate with or without LCF.

S100β = test: Serum S100β ELISA in SE rats; assay type: in vivo, rat; settings: 7 injections, 2 d after SE-induction with pilocarpine
Method: With reference to FIGS. 2A and 2B, the effect of dual LOX-COX inhibition on seizure-mediated capillary leakage was tested. Rats were treated with 10 mg/kg LCF (i.p., 7 injections). Capillaries were isolated 2 d after status epilepticus (SE)-induction with pilocarpine. Serum levels of S100β were assessed by ELISA (Millipore). Statistics: ***p<0.001 (ANOVA). Data: mean±SEM. […] The effect of dual LOX-COX inhibition on seizure-mediated capillary leakage was further tested in rates treated with either 5 mg/kg or 10 mg/kg LCF (i.p., 7 injections). Capillaries were isolated 2 d after SE-induction with pilocarpine. Serum levels of S100β were assessed by ELISA (Millipore). […] With reference to FIGS. 4A and 4B, the effect of a combination of a LOX inhibitor and a COX inhibitor on seizure-mediated capillary leakage was tested. Rats were treated with zileuton (ZLT) and celecoxib (CEL) (5 mg/kg and 10 mg/kg; i.p., 7 injections). Capillaries were isolated 2 d after SE-induction with pilocarpine. Serum levels of S100β were assessed by ELISA (Millipore). Statistics: ***p<0.001 (ANOVA). Data: mean±SEM.

`CC1(C)Cc2c(-c3ccccc3)c(-c3ccc(Cl)cc3)c(CC(=O)O)n2C1` [licofelone] was tested, and the “MMP-2 protein levels (Western blot)” value (MMP-2) was “did not show increased protein levels”, the “glutamate-mediated capillary leakage (Texas Red leakage)” value [1] was “reduced glutamate-mediated capillary leakage” and the “glutamate-mediated capillary leakage (Texas Red leakage)” value ([1]; listed as LCF) was “glutamate-mediated barrier leakage reduction”. The “capillary leakage in SE rats (Texas Red leakage)” value [2] was “prevents capillary leakage”, the “MMP-9 protein levels (Western blot)” value (MMP-9) was “did not show increased protein levels” and the MMP activity (MMP) was “did not show increased activity”. For the same molecule, the “capillary leakage as reflected by S100β levels in serum from SE rats, dose dependence” value (S100β; 5 mg/kg or 10 mg/kg LCF i.p.) was “inhibit capillary leakage in a dose-dependent manner” and the “S100β levels in serum from SE rats” value (S100β; 10 mg/kg LCF i.p.) was “reduces S100β levels”.
